Assay results from PubChem BioAssay AID330 (DTP/NCI, 2004).
Where “and” joins values, the source holds several entries; their conditions need not be identical. Equal entries are not always repeated. Toxic doses and inconclusive results are not listed. The calls were made as follows: active = survival T/C of 150% or more; inactive = T/C below 125% in these data.

Test system: P388 leukemia ip, CD2F1 mice, survival T/C
Assay: NCI In Vivo Anticancer Drug Screen. Data for tumor model P388 Leukemia (intraperitoneal) in CD2F1 (CDF1) mice
Conditions: endpoint: median survival time, higher = longer survival
Method in brief: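 Mice carrying the transplanted tumor received test compound or vehicle. Survival was recorded in each group, and the value is the treated-group measurement divided by that of the vehicle-treated control group.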

[1] = dose: 60.0 mg/kg/injection, schedule: Q01DX005 (ip), vehicle: saline with Tween-80
[2] = dose: 120.0 mg/kg/injection, schedule: Q01DX005 (ip), vehicle: saline with Tween-80
[3] = dose: 240.0 mg/kg/injection, schedule: Q01DX005 (ip), vehicle: saline with Tween-80
[4] = dose: 60.0 mg/kg/injection, schedule: Q01DX005 (ip), vehicle: Klucel (hydroxypropylcellulose) (HPC)
[5] = dose: 120.0 mg/kg/injection, schedule: Q01DX005 (ip), vehicle: Klucel (hydroxypropylcellulose) (HPC)
[6] = dose: 240.0 mg/kg/injection, schedule: Q01DX005 (ip), vehicle: Klucel (hydroxypropylcellulose) (HPC)
[7] = dose: 50.0 mg/kg/injection, schedule: Q01DX005 (ip), vehicle: Klucel (hydroxypropylcellulose) (HPC)
[8] = dose: 100.0 mg/kg/injection, schedule: Q01DX005 (ip), vehicle: Klucel (hydroxypropylcellulose) (HPC)
[9] = dose: 200.0 mg/kg/injection, schedule: Q01DX005 (ip), vehicle: Klucel (hydroxypropylcellulose) (HPC)
[10] = dose: 50.0 mg/kg/injection, schedule: Q01DX009 (ip), vehicle: Klucel (hydroxypropylcellulose) (HPC)
[11] = dose: 100.0 mg/kg/injection, schedule: Q01DX009 (ip), vehicle: Klucel (hydroxypropylcellulose) (HPC)
[12] = dose: 200.0 mg/kg/injection, schedule: Q01DX009 (ip), vehicle: Klucel (hydroxypropylcellulose) (HPC)
[13] = dose: 25.0 mg/kg/injection, schedule: Q01DX009 (ip), vehicle: saline with Tween-80
[14] = dose: 50.0 mg/kg/injection, schedule: Q01DX009 (ip), vehicle: saline with Tween-80
[15] = dose: 50.0 mg/kg/injection, schedule: Q01DX009 (ip), vehicle: saline
[16] = dose: 100.0 mg/kg/injection, schedule: Q01DX009 (ip), vehicle: saline
[17] = dose: 200.0 mg/kg/injection, schedule: Q01DX009 (ip), vehicle: saline
[18] = dose: 100.0 mg/kg/injection, schedule: Q01DX009 (ip), vehicle: saline with Tween-80
[19] = dose: 200.0 mg/kg/injection, schedule: Q01DX009 (ip), vehicle: saline with Tween-80

Measured: T/C

CCC1(CC)C(=O)C(CC)(CC)C1=O
inactive: [1] 104 % of control | [2] 110 % of control | [3] 110 % of control

CC(C)(C(=S)[S-])[P+](c1ccccc1)(c1ccccc1)c1ccccc1
inactive: [4] 96 % of control | [5] 92 % of control | [6] 88 % of control

CC1C(c2ccccc2)NC(c2ccccc2)C(C)C1O (stereo unspecified)
inactive: [7] 101 % of control | [8] 98 % of control | [9] 105 % of control

Clc1ccc(N=Cc2ccc(C=Nc3ccc(Cl)cn3)cc2)nc1
inactive: [10] 91 % of control | [11] 94 % of control | [12] 93 % of control

O=C(NNC1CCN(Cc2ccccc2)CC1)c1ccccc1
inactive: dose: 10.0 mg/kg/injection, schedule: Q04DX003 (ip), vehicle: saline with Tween-80 100 % of control | dose: 20.0 mg/kg/injection, schedule: Q04DX003 (ip), vehicle: saline with Tween-80 95 % of control

OC1(c2ccccc2)C2CC1C2 (stereo unspecified)
inactive: dose: 100.0 mg/kg/injection, schedule: Q04DX002 (ip), vehicle: saline 104 % of control | dose: 200.0 mg/kg/injection, schedule: Q04DX002 (ip), vehicle: saline 101 % of control | dose: 400.0 mg/kg/injection, schedule: Q04DX002 (ip), vehicle: saline 102 % of control

CCCCCCC(=O)CC1(C(=O)OC)NC(=S)NC(=O)C1C#N (stereo unspecified)
inactive: [4] 100 % of control | [5] 103 % of control | [6] 97 % of control

O=C1/C(=C\c2ccccc2)C/C1=C\c1ccccc1
inactive: dose: 100.0 mg/kg/injection, schedule: Q04DX003 (ip), vehicle: Klucel (hydroxypropylcellulose) (HPC) 97 % of control | dose: 200.0 mg/kg/injection, schedule: Q04DX003 (ip), vehicle: Klucel (hydroxypropylcellulose) (HPC) 100 % of control | dose: 400.0 mg/kg/injection, schedule: Q04DX003 (ip), vehicle: Klucel (hydroxypropylcellulose) (HPC) 95 % of control

S=c1[nH]c2cc(Cl)ccc2o1
inactive: dose: 6.25 mg/kg/injection, schedule: Q01DX009 (ip), vehicle: saline with Tween-80 108 % of control | dose: 12.5 mg/kg/injection, schedule: Q01DX009 (ip), vehicle: saline with Tween-80 96 % of control | [13] 117 % of control | [14] 105 % of control

CC1(C)OC2C(COC(c3ccccc3)(c3ccccc3)c3ccccc3)OC(n3ccc(=O)[nH]c3=O)C2O1 (stereo unspecified)
inactive: [7] 97 % of control | [8] 89 % of control | [9] 88 % of control

Nc1cccc(S(=O)(=O)Nc2c(N)nc(SCC(=O)O)[nH]c2=O)c1
inactive: [4] 100 % of control | [5] 98 % of control | [6] 98 % of control

CC(C)C(N)C(=O)O (stereo unspecified)
inactive: [10] 100 % of control | [11] 100 % of control | [12] 91 % of control

Cc1noc(N(C)C)c1C
inactive: [15] 102 % of control | [16] 100 % of control | [17] 108 % of control

O=C1/C(=C/c2ccc(F)cc2)SC(=S)N1c1ccc(Cl)c(Cl)c1
inactive: dose: 25.0 mg/kg/injection, schedule: Q01DX009 (ip), vehicle: saline 91 % of control and 95 % of control | [15] 104 % of control and 91 % of control and 94 % of control | [16] 100 % of control and 94 % of control | [17] 108 % of control and 124 % of control and 91 % of control

OCC(O)COCCCCCCCCCCCC1C=CCC1 (stereo unspecified)
inactive: dose: 100.0 mg/kg/injection, schedule: Q04DX003 (ip), vehicle: saline 99 % of control | dose: 200.0 mg/kg/injection, schedule: Q04DX003 (ip), vehicle: saline 99 % of control | dose: 400.0 mg/kg/injection, schedule: Q04DX003 (ip), vehicle: saline 99 % of control

COc1ccc(C2(C3NCCC4=C3CCCC4)CC2)cc1 (stereo unspecified)
inactive: [7] 97 % of control | [8] 100 % of control

COc1ccc(NS(=O)(=O)c2ccc(F)cc2)cc1
inactive: [1] 99 % of control | [2] 106 % of control | [3] 106 % of control

CC(C)COC1CCc2ncccc2O1 (stereo unspecified)
inactive: [15] 104 % of control | [16] 104 % of control | [17] 103 % of control

C/C(=C\C=C/c1ccoc1)C(=O)c1cc(C)co1
inactive: dose: 6.25 mg/kg/injection, schedule: Q01DX009 (ip), vehicle: Klucel (hydroxypropylcellulose) (HPC) 106 % of control | dose: 12.5 mg/kg/injection, schedule: Q01DX009 (ip), vehicle: Klucel (hydroxypropylcellulose) (HPC) 103 % of control and 95 % of control | dose: 25.0 mg/kg/injection, schedule: Q01DX009 (ip), vehicle: Klucel (hydroxypropylcellulose) (HPC) 106 % of control and 96 % of control | [10] 115 % of control and 96 % of control | [11] 104 % of control

Cn1c(=O)n2n(c1=O)C1C3C4C3C3C5(COCC135)C42 (stereo unspecified)
inactive: [10] 97 % of control | [11] 92 % of control | [12] 97 % of control

O=S(=O)(F)c1ccc(O)cc1
inactive: dose: 15.0 mg/kg/injection, schedule: Q01DX005 (ip), vehicle: saline 96 % of control | dose: 30.0 mg/kg/injection, schedule: Q01DX005 (ip), vehicle: saline 99 % of control | dose: 60.0 mg/kg/injection, schedule: Q01DX005 (ip), vehicle: saline 99 % of control and 97 % of control

O=C(NN=C1c2ccccc2-c2ccccc21)Nc1ccccc1
inactive: [14] 95 % of control | [18] 96 % of control | [19] 96 % of control

CCOc1ccc2ccccc2c1C(Cc1ccccc1)NC (stereo unspecified)
inactive: dose: 12.5 mg/kg/injection, schedule: Q01DX005 (ip), vehicle: Klucel (hydroxypropylcellulose) (HPC) 99 % of control | dose: 25.0 mg/kg/injection, schedule: Q01DX005 (ip), vehicle: Klucel (hydroxypropylcellulose) (HPC) 93 % of control | [7] 99 % of control and 100 % of control

CCN(CC)[Se]c1ccccc1
inactive: dose: 100.0 mg/kg/injection, schedule: Q04DX002 (ip), vehicle: saline with Tween-80 101 % of control | dose: 200.0 mg/kg/injection, schedule: Q04DX002 (ip), vehicle: saline with Tween-80 100 % of control | dose: 400.0 mg/kg/injection, schedule: Q04DX002 (ip), vehicle: saline with Tween-80 98 % of control

O=C(O)C1C2OC2C2OC2C1C(=O)O (stereo unspecified)
inactive: dose: 25.0 mg/kg/injection, schedule: Q01DX001 (ip), vehicle: Klucel (hydroxypropylcellulose) (HPC) 89 % of control | dose: 50.0 mg/kg/injection, schedule: Q01DX001 (ip), vehicle: Klucel (hydroxypropylcellulose) (HPC) 92 % of control | dose: 100.0 mg/kg/injection, schedule: Q01DX001 (ip), vehicle: Klucel (hydroxypropylcellulose) (HPC) 88 % of control

O=C1OC2C(O)C(N(O)c3ccccc3)OC2[C@@H]1O (stereo partly specified)
inactive: [1] 100 % of control | [2] 106 % of control | [3] 106 % of control

CCc1cccc(C)c1NC(=O)C(=O)CC(=O)CS(=O)(=O)c1ccc(C)cc1
inactive: [1] 109 % of control | [2] 111 % of control | [3] 104 % of control

CC(=O)Nc1ccc(C(=O)O)cc1[N+](=O)[O-]
inactive: [18] 99 % of control | [19] 99 % of control | dose: 400.0 mg/kg/injection, schedule: Q01DX009 (ip), vehicle: saline with Tween-80 97 % of control

CCCN1COC(OCC)C(C)(C)C1 (stereo unspecified)
inactive: [13] 110 % of control | [19] 93 % of control

COc1ccc(N=Nc2ncc(N)nc2N)cc1
inactive: [4] 107 % of control | [5] 108 % of control | [6] 96 % of control
